Patent US6562627B1, “High throughput method for measurement of physicochemical values” (BDC Pharma LLC, priority 1998, dated 2003)
Structures can show the parent of a compound that is named as a salt. Where two headings read alike, the source gives them in different places.

Columns and labels:
[1] = cited from earlier work
[2] = cited from earlier work; remark: listed apart in the source
[3] = Excerpt: (§1) k′app=k′HA([H^+]+^surfaceKa)/([H^+]+^bulkKa) Eq. 7
(§2) where k′app is the capacity factor of the test compound measured at different mobile phase pH conditions, and k′HA is the capacity factor of the non-ionized species. Nonlinear fitting of the three experimentally measured parameters [H+], k′app, and k′HA to eq. 7 can be used to obtain numerical estimates for both ^surface Ka and ^bulkKa of the compound.
(§3) k′app=k′A^−([H^+]/^surfaceKa+1)/([H^+]/^bulkKa+1) Eq. 8
(§4) The reason for developing eq. 7 is that eq. […] Both parameters (k′HA and k′A^−) can be treated as unknowns in the equations (like ^bulkKa and ^surfaceKa), and the experimental data can be used to calculate (by non-linear curve fitting) three parameters (k′HA (or k′A^−) and ^bulkKa and ^surfaceKa) instead of two (^bulkKa and ^surfaceKa). This reduces the number of experimental data to be collected, and still allows the determination of the desired parameters (^bulkKa and ^surfaceKa).
(§5) The conventional thinking regarding equations 7 and 8 is that k′HA and k′A^− (the capacity factors of the […] species) are constants that have to be determined experimentally in order to calculate ^bulkpKa and ^surfacepKa. […] This is problematic because it may require use of pH's greater than 8-9, which in the case of some test surfaces causes deterioration. […] If sufficient data are collected (no matter what the pH range is), non-linear curve fitting techniques can be used to fit three parameters (^bulkpKa, ^surfacepKa and k′HA (or k′A^−, depending on whether you use Eq. 7 or Eq. 8)) instead of two (^bulkpKa and ^surfacepKa).
(§6) The test compounds were injected as two distinct mixtures (acidic and basic compounds) to avoid acid/base interactions during the chromatographic runs. […] The retention time (tr) was determined for each compound and the corresponding capacity factor k′app was calculated. Between each run, column degradation was evaluated by running the standard compounds at pH=7.4.
(§7) The retention time of each compound was determined using the Esquire Data Analysis software. The capacity factors k′app were calculated using the equation: k′app=(tr−t0)/t0 where the tr is the retention time, and t0 is the dead time. The final ^surfaceKa and ^bulkKa were calculated by nonlinear least square curve fitting of the following equations:
(§8) k′app=k′HA([H^+]+^surfaceKa)/([H^+]+^bulkKa) (Eq. 7 as shown above).
(§9) k′app=k′A^−([H^+]/^surfaceKa+1)/([H^+]/+^bulkKa+1) (Eq. 8 as shown above).
(§10) [H^+] was calculated from the mobile phase pH values used for the experiment. The fitting parameters were k′A^−, ^surfaceKa, and ^bulkKa for the acidic compounds and kHA, ^surfaceKa, and ^bulkKa for the basic compounds.
(§11) The nonlinear fitting function is from the commercial software S-PLUS (MathSoft). Briefly, the function tries to estimate the parameters to minimize the sum of the squared differences between the response and the prediction. We collected data at 15 different pH values. […] Like all silica based chromatography material, Immobilized Artificial Membranes (IAM's) are unstable in the presence of chemically basic mobile phase, and column lifetimes decrease under these conditions. Thus it is not possible to continuously perfuse IAM columns with basic mobile phases for extended periods of time. […] In summary, 12 points were used to curve fit the data.
(§12) For each compound, the retention time (tr) was determined and the corresponding capacity factor (k′app) was calculated under various mobile phase pH conditions.

[4] = remark: listed apart in the source
Excerpt: as §1, §2, §3, §4, §5
The data was collected on 4.6×30 mm^esterIAM.PC^C10/C3 columns. Four ^esterIAM.PC^C10/C3 columns were used to collect all the experimental data.
as §6, §7, §8, §9, §10, §11, §12

[5] = literature, cited from earlier work; for bulkpka2 (Ref.): second ionizable group
[6] = Capacity factor (k′app) by LC/MS on an immobilized artificial membrane column at varied mobile phase pH; type: physicochemical
[7] = 0.01 M PBS mobile phase, 12 pH points 4.05 to 8.06, monovalent equations
[8] = esterIAM.PC C10/C3 column, 0.01 M PBS mobile phase, 12 pH points 4.05 to 8.06, monovalent equations

CCCCCCCCCCCCC/C=C/[C@@H](O)[C@H](CO)N(C)C [DMS, N,N-Dimethyl-D-sphingosine]
fraction protonated ([1]; at physiological pH): 90%
membrane bound pKa value [1]: 8.8

CCCCNc1ccc(C(=O)OCCN(C)C)cc1 [TTC, tetracaine hydrochloride]
location in the membrane ([2]; pH 5.5, positively charged form): resides near the phospholipid head group region
location in the membrane ([2]; pH 9.0, uncharged form): penetrates more deeply into the hydrocarbon region of the membrane

CC[C@H]1[C@@H]2C[C@H]3[C@@H]4N(C)c5ccccc5[C@]45C[C@@H]([C@H]2[C@H]5O)N3[C@@H]1O [ajmaline]
bulkpKa (Exp.) [3, 7]: 7.43
surfacepKa (Exp.) [4, 8]: 6.75
bulkpKa1 (Ref.) ([5]; 20° C., DMFA/H2O-80%): 8.1

COc1cc2c(cc1OC)[C@@]13CCN4CC5=CCO[C@H]6CC(=O)N2[C@H]1[C@H]6[C@H]5C[C@H]43 [brucine]
bulkpKa (Exp.) [3, 7]: 7.9
surfacepKa (Exp.) [4, 8]: 6.55
bulkpKa1 (Ref.) ([5]; conditions not given): 6.04
bulkpka2 (Ref.) [5]: 11.70

CN(C)CCOC(C)(c1ccccc1)c1ccccn1 (centres unmarked) [doxylamine]
bulkpKa (Exp.) [3, 7]: 7.93
surfacepKa (Exp.) [4, 8]: 6.72
bulkpKa1 (Ref.) ([5]; conditions not given): 7.64
bulkpka2 (Ref.) [5]: 9.20

CCC[C@@H]1C[C@@H](C(=O)N[C@@H]([C@H]2O[C@H](SC)[C@H](O)[C@@H](O)[C@H]2O)[C@@H](C)O)N(C)C1 [lincomycin]
bulkpKa (Exp.) [3]: 7.54
surfacepKa (Exp.) [4]: 6.28
bulkpKa1 (Ref.) ([5]; conditions not given): 7.5

COc1ccc(OC)c(C(O)CNC(=O)CN)c1 (centres unmarked) [midodrine]
bulkpKa (Exp.) [3]: 6.65
surfacepKa (Exp.) [4]: 6.18
bulkpKa1 (Ref.) ([5]; 0.3% aq. soln): 7.80

Cc1cc(-c2ccccc2)nnc1NCCN1CCOCC1 [minaprine]
bulkpKa (Exp.) [3]: 6.75
surfacepKa (Exp.) [4]: 5.75
bulkpKa1 (Ref.) ([5]; conditions not given): 7.05
bulkpka2 (Ref.) [5]: 4

CCn1cc(C(=O)O)c(=O)c2ccc(C)nc21 [nalldixic acid]
bulkpKa (Exp.) [3, 7]: 6.03
surfacepKa (Exp.) [4, 8]: 7.54
bulkpKa1 (Ref.) ([5]; conditions not given): 6.02

C=C1CC[C@@]2(O)[C@H]3Cc4ccc(O)c5c4[C@@]2(CCN3CC2CC2)[C@H]1O5 [nalmefene]
bulkpKa (Exp.) [3, 7]: 7.81
surfacepKa (Exp.) [4, 8]: 6.88
bulkpKa1 (Ref.) ([5]; conditions not given): 7.63

C=CCN1CC[C@]23c4c5ccc(O)c4O[C@H]2[C@@H](O)C=C[C@H]3[C@H]1C5 [nalorphine]
bulkpKa (Exp.) [3, 7]: 7.63
surfacepKa (Exp.) [4, 8]: 6.04
bulkpKa1 (Ref.) ([5]; conditions not given): 7.8

C=CCN1CC[C@]23c4c5ccc(O)c4O[C@H]2C(=O)CC[C@@]3(O)[C@H]1C5 [naloxone]
bulkpKa (Exp.) [3, 7]: 7.84
surfacepKa (Exp.) [4, 8]: 6.24

CC1COc2c(N3CCN(C)CC3)c(F)cc3c(=O)c(C(=O)O)cn1c23 (centres unmarked) [ofloxacin]
bulkpKa (Exp.) [3, 7]: 6.84
surfacepKa (Exp.) [4, 8]: 7.32
bulkpKa1 (Ref.) ([5]; conditions not given): 5.74
bulkpka2 (Ref.) [5]: 7.9

COc1cc(NS(=O)(=O)c2ccc(N)cc2)nc(OC)n1 [sulfadimethoxine]
Capacity Factor (k′app) on IAM.PC Surface ([6]; mobile phase pH 4.05): 152.07
Capacity Factor (k′app) on IAM.PC Surface ([6]; mobile phase pH 4.53 (not used for curve fit)): 131.83
Capacity Factor (k′app) on IAM.PC Surface ([6]; mobile phase pH 5.01): 131.23
Capacity Factor (k′app) on IAM.PC Surface ([6]; mobile phase pH 5.51): 116.77
Capacity Factor (k′app) on IAM.PC Surface ([6]; mobile phase pH 6.10): 67.79
Capacity Factor (k′app) on IAM.PC Surface ([6]; mobile phase pH 6.38): 46.54
Capacity Factor (k′app) on IAM.PC Surface ([6]; mobile phase pH 6.71): 28.10
Capacity Factor (k′app) on IAM.PC Surface ([6]; mobile phase pH 7.00): 19.48
Capacity Factor (k′app) on IAM.PC Surface ([6]; mobile phase pH 7.17): 13.49
Capacity Factor (k′app) on IAM.PC Surface ([6]; mobile phase pH 7.45): 8.24
Capacity Factor (k′app) on IAM.PC Surface ([6]; mobile phase pH 7.69): 6.40
Capacity Factor (k′app) on IAM.PC Surface ([6]; mobile phase pH 7.91): 4.85
Capacity Factor (k′app) on IAM.PC Surface ([6]; mobile phase pH 8.06): 3.52
Capacity Factor (k′app) on IAM.PC Surface ([6]; mobile phase pH 8.81 (column degradation, not used for curve fit)): 2.84
Capacity Factor (k′app) on IAM.PC Surface ([6]; mobile phase pH 10.42 (column degradation, not used for curve fit)): 0.71
bulkpKa (Exp.) [3, 7]: 6.02
surfacepKa (Exp.) [4, 8]: 7.64

COc1cc2nc(N3CCN(C(=O)C4CCCO4)CC3)nc(N)c2cc1OC (centres unmarked) [terazosin]
bulkpKa (Exp.) [3]: 6.65
surfacepKa (Exp.) [4]: 6.17
bulkpKa1 (Ref.) ([5]; 0.1 N NaOH): 7.1

CC(=O)CC(c1ccccc1)c1c(O)c2ccccc2oc1=O (centres unmarked) [warfarin]
bulkpKa (Exp.) [3, 7]: 5.43
surfacepKa (Exp.) [4, 8]: 7
